According to patent publication US20190111040A1, “IN VIVO AMELIORATION OF ENDOGENOUS ANTI-TUMOR AUTOANTIBODIES TARGETING SURFACE TUMOR ANTIGENS VIA LOW-DOSE P4N” (THE JOHNS HOPKINS UNIVERSITY, priority 2016, published 2019):
Structures can show the parent of a compound that is named as a salt.

Experiments:
human PBMCs [1] = assay: PBMC proliferation assay; format: cell-based; details: 48 h
Experimental: PBMC proliferation assay. Two hundred microliters of PBMCs (5×10^4 cells/ml) were seeded in each well of a 96-well culture plate and treated with increasing concentrations of P4N (0.38, 0.75, 1.5, 3 or 6 μM) for 48 h. The number of viable cells was evaluated by MTT assay and a cell proliferation index was calculated as follows: Proliferation index=(OD595 of sample)/(OD595 of the untreated cells)×100%. PBMCs were also treated with or without P4N (0.75, 1.5 or 3 μM) for 48 h, and probed with anti-CD20 antibodies (Roche, Mannheim, Germany) and FITC-conjugated goat anti-human IgG polyclonal antibodies (SouthernBiotech, Birmingham, Ala.). The percentage of B cells in treated PBMCs was determined by flow cytometry (BD Biosciences, Mountain View, Calif.), and the indices of B cell proliferation were calculated as follows: (the number of PBMCs×the percentage of B cells in treated PBMCs)/(the number of PBMCs×the percentage of B cells in untreated PBMCs).

THP-1 cells = assay: Cytokine and chemokine production of P4N treated THP-1, Bio-Plex and ELISA; format: cell-based, human
Experimental: THP-1 cells were treated with 3 μM of P4N or the vehicle control (NC) for 24 h. Supernatants were collected and analyzed using the Bio-Plex assay for human cytokines. Shown are the concentrations of 27 human cytokines for each treatment from three independent experiments. The levels of IL-2, IL-4, IL-6, IL-7, IL-9, IL13, IL-15, Eotaxin, G-CSF, IFN-γ and PDGF-bb were undetectable.
FIG. 13 provides graphs showing P4N-induced pro-inflammatory cytokine production in THP-1 cells. THP-1 cells were treated with 3 μM P4N for different lengths of time, Cell supernatants were collected and TNF-α, IL-1β and IL-8 quantitated by ELISA. All results are the mean of three independent experiments (n=6).

human PBMCs [2] = assay: Activin A and BAFF expression in human PBMCs; format: cell-based; details: low dose P4N (3 μM)
Experimental: FIGS. 5A-5F depict the expression of Activin A/BAFF induced by P4N treatments. (A) P4N induced Activin A or BAFF expression in human PBMCs as determined by RT-PCR. S1-S5 display different individual blood samples collected from 5 different human donors; N, no treatment; P, P4N-treatment (3 μM). The change in Activin A and BAFF expression (mean of 5 patients) relative to the control (NC) is plotted as a histogram (B) The effect of increasing dosages of P4N for 12 h on mRNA and protein levels of Activin A or BAFF in THP-1 cells was analyzed by RT-PCR and ELISA. (C) The effect of 6 μM P4N on mRNA and protein levels of Activin A or BAFF in THP-1 cells was determined at a different time period. (D) The effect of different inhibitors on Activin A-induced BAFF expression was examined. The expression of BAFF mRNA in inhibitor-treated THP-1 cells was determined by RT-PCR, and (E) BAFF protein secretion was measured by ELISA. (F) The effect of THP-1 conditioned media on the proliferation of Raji cells and OKT3 hybridoma cells were determined. […] The results are expressed as % viable cells relative to the control (NC, media from untreated THP-1 cells). […]
Reverse transcription PCR. Human PBMCs or THP-1 cells were treated with P4N, and then the mRNA expression of INHBA and BAFF in these cells was measured by reverse transcription PCR. […]

[3] = THP-1 monocytes, 3 μM P4N, ELISA

Compound: C[C@H](Cc1ccc(OCCN2CCCCC2)c(OCCN2CCCCC2)c1)[C@@H](C)Cc1ccc(OCCN2CCCCC2)c(OCCN2CCCCC2)c1 [P4N, meso-2,3-dimethyl-1,4-bis(3,4-[2-(piperidino)ethoxyphenyl])butane tetrakishydrochloride salt]
- increase of PBMC proliferation (human PBMCs [1]; depending on the dose of P4N (0.38-6 μM), MTT): 10-35%
- proliferation of the B cell population in human PBMCs (human PBMCs [1]; flow cytometry): significantly increased
- levels of IL-2, IL-4, IL-6, IL-7, IL-9, IL13, IL-15, Eotaxin, G-CSF, IFN-γ and PDGF-bb (THP-1 cells; THP-1, 3 μM P4N, 24 h): undetectable
- expression of pro-inflammatory cytokines and chemokines (THP-1 cells; THP-1, 3 μM P4N, 24 h, Bio-Plex): increased the expression
- time of stimulated IL-8 release (THP-1 cells; [3]): ≥ 8 h
- time to induction of TNF-α and IL-1β expression (THP-1 cells; [3]): ≤ 4 h
- gene expression and protein production of Activin A and BAFF (human PBMCs [2]): increase their gene expression and protein production
